Assay results as given in patent US6506779B1, “Acetylene derivatives as anti-inflammatory/analgesic agents” (Pfizer Inc., priority 1999, dated 2003).

Structure (SMILES) | melting point [°C]
CCCCC#Cc1ccc(-c2cc(C(F)(F)F)nn2-c2ccc(S(C)(=O)=O)cc2)cc1 [Example 16, 5-[4-(1-Hexyn-1-yl)Phenyl]-1-[4-(Methylsulfonyl)Phenyl]-3-Trifluoromethyl-1H-Pyrazole] | 96 to 98
CS(=O)(=O)c1ccc(-n2nc(C(F)(F)F)cc2-c2ccc(C#CCCCO)cc2)cc1 [Example 17, 5-[4-(5-Hydroxy-1-Pentyn-1-yl)Phenyl]-1-[4-(Methylsulfonyl)Phenyl]-3-Trifluoromethyl-1H-Pyrazole] | 87 to 90
CS(=O)(=O)c1ccc(-n2nc(C(F)(F)F)cc2-c2ccc(C#Cc3ccccc3)cc2)cc1 [Example 15, 1-[4-(Methylsulfonyl)Phenyl]-5-[4-(Phenylethynyl)Phenyl]-3-Trifluoromethyl-1H-Pyrazole] | 170 to 172
